EP1210344B1, “HETEROPOLYCYCLIC COMPOUNDS AND THEIR USE AS METABOTROPIC GLUTAMATE RECEPTOR ANTAGONISTS” (NPS PHARMACEUTICALS, INC., priority 1999, dated 2001)

Target: chimeric CaR/mGluR5d receptor (Homo sapiens, UniProt P41594)
Assay: CaR/mGluR5d Screening Assay (FLIPR, intracellular calcium)
Type: cell-based
Settings: HEK 293 cells expressing the chimeric CaR/mGluR5d receptor, Fluo-3 fluorescence; read-out: IC50 value in relation to CaR/mGluR5d
Method: HEK 293 cells expressing the chimeric CaR/mGluR5d receptor (clonal cell line hCaR/hmGluR5d_hek6) are plated 24 hours prior to assay at a density of 100,000 cells per well in Collagen I-coated 96-well black, clear bottom plates (Becton Dickenson) in DMEM supplemented with 10% FBS (Hyclone).
On the day of the assay, tissue culture medium is aspirated from the wells of a plate and 80 µL of Assay Buffer (Assay Buffer is: 20 mM HEPES, 146 mM NaCl, 5 mM KCl, 1 mM MgCl2, 1 mM CaCl2, 1 mg/ml BSA, 1 mg/ml glucose, pH 7.4) supplemented with 6 µM of the Ca^2+-sensitive dye, Fluo-3 AM (Molecular Probes) and 0.025% Pluronic (Molecular Probes) is added to each well. The plate is then incubated in the dark for 1 hour at room temperature to efficiently load the cells with Fluo-3. At the end of the incubation, extracellular Fluo-3 is removed by washing the plate with Assay buffer. Assay Buffer is added back to each well (final volume = 160 µL) prior to beginning the assay.
The plate is loaded into a FLIPR robotic device (Molecular Devices) with the laser setting at 0.8 Watts. […] Relative fluorescence intensity (excitation λ = 488 nm / emission λ = 510 nM) is monitored at relevant time intervals throughout the assay period to measure receptor activation and/or inhibition.

chimeric CaR/mGluR5d receptor, sequence (P41594 580-876, change not shown): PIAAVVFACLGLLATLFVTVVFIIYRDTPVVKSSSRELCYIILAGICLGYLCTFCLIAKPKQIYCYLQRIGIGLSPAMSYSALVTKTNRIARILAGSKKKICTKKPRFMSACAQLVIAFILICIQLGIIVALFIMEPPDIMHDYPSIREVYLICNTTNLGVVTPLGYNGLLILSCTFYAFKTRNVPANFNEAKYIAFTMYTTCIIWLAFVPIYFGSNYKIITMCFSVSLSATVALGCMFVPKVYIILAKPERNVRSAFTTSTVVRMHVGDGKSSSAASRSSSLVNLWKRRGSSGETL
chimeric CaR/mGluR5d receptor, sequence (P41180 20-610 partner): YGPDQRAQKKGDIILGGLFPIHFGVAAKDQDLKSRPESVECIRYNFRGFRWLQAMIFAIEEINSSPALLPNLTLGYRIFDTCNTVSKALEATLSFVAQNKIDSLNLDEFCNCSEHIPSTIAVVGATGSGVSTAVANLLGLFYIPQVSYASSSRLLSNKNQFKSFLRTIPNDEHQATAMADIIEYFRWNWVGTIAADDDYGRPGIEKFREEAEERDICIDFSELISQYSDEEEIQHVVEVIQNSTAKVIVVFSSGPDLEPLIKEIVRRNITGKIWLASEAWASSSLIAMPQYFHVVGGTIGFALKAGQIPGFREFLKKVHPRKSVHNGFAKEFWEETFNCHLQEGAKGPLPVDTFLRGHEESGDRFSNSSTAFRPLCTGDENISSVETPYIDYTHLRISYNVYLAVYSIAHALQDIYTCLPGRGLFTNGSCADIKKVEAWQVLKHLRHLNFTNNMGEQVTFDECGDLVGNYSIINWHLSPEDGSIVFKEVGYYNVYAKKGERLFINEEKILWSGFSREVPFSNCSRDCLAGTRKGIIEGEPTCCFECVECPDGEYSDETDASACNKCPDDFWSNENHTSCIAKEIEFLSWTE

`N#Cc1cccc(-c2nc(-c3ccccn3)co2)c1` [B52, 2-[3-cyanophenyl]-4-[pyridin-2-yl]-1,3-oxazole] showed an IC50 of 45 nM.
